Measured values published in PubChem BioAssay (NCI).
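Each compound was tested at five concentrations against cells in 96-well plates for 48 hours. GI50 marks 50% less growth. TGI is the concentration that stops growth completely.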

Columns and labels:
Assay in all cases: DTP human tumour cell line panel, 48 h
[1] = test system: ACHN renal
[2] = test system: MCF7 breast
[3] = test system: MDA-MB-435
[4] = test system: CCRF-CEM leukemia
[5] = test system: TK-10 renal
[6] = test system: UACC-62 melanoma
[7] = test system: BT-549 breast
[8] = test system: IGROV1 ovarian
[9] = test system: HCT-15 colon
[10] = test system: SF-295 CNS
[11] = test system: U251 CNS
[12] = test system: NCI-H226 lung
[13] = test system: T-47D breast
[14] = test system: K-562 leukemia
[15] = test system: KM12 colon
[16] = test system: SN12C renal
[17] = test system: OVCAR-8 ovarian
[18] = test system: SK-OV-3 ovarian
[19] = test system: MALME-3M melanoma
[20] = test system: UACC-257 melanoma
[21] = test system: HOP-92 NSCLC
[22] = test system: PC-3 prostate
[23] = test system: EKVX NSCLC
[24] = test system: HL-60(TB) leukemia
[25] = test system: RXF 393 renal
[26] = test system: SW-620 colon
[27] = test system: MDA-MB-231 breast
[28] = test system: HCT-116 colon
[29] = test system: SF-268 CNS
[30] = test system: SK-MEL-2 melanoma
[31] = test system: NCI/ADR-RES ovarian
[32] = test system: OVCAR-4 ovarian
[33] = test system: SK-MEL-5 melanoma
[34] = test system: A498 renal
[35] = test system: RPMI-8226 leukemia
[36] = test system: UO-31 renal
[37] = test system: MOLT-4 leukemia
[38] = test system: SNB-75 CNS
[39] = test system: SK-MEL-28 melanoma
[40] = test system: OVCAR-3 ovarian
[41] = test system: HT29 colon
[42] = test system: HCC-2998 colon
[43] = test system: SF-539 CNS
[44] = test system: M14 melanoma
[45] = test system: 786-0 renal
[46] = test system: CAKI-1 renal
[47] = test system: DU-145 prostate
[48] = test system: NCI-H460 lung
[49] = test system: A549 NSCLC
[50] = test system: OVCAR-5 ovarian
[51] = test system: LOX IMVI melanoma
[52] = test system: HS 578T breast
[53] = test system: SNB-19 CNS
[54] = test system: SR leukemia
[55] = test system: NCI-H522 lung
[56] = test system: NCI-H23 lung
[57] = test system: COLO 205 colon
[58] = test system: HOP-62 NSCLC

For `O=C(/C=C/c1ccc(Cl)cc1Cl)c1ccc(Cl)cc1Cl`, the GI50 [1] was 22.1 µM, the TGI [1] was 47.9 µM and the GI50 [2] was 7.88 µM. It also gave a TGI [2] of over 24 µM, a GI50 [3] of 16.7 µM and a TGI [3] of 35.3 µM. The GI50 [4] was 9.14 µM, the TGI [4] was 32.8 µM and the GI50 [5] was 28 µM. It also gave a TGI [5] of over 73.2 µM, a GI50 [6] of 1.52 µM and a TGI [6] of 12.1 µM. The GI50 [7] was 16 µM, the TGI [7] was 36.1 µM and the GI50 [8] was 22.3 µM. It also gave a TGI [8] of 55.8 µM, a GI50 [9] of 14.4 µM and a TGI [9] of 31 µM. For the same compound, the GI50 [10] was 18.7 µM, the TGI [10] was 47.7 µM and the GI50 [11] was 14.1 µM. The TGI [11] was 34.1 µM, the GI50 [12] was 19.9 µM and the TGI [12] was 40.8 µM. The GI50 [13] was 24.2 µM, the TGI [13] was over 72.7 µM and the GI50 [14] was 10.4 µM. It also gave a TGI [14] of 31.4 µM, a GI50 [15] of 13.5 µM and a TGI [15] of 30.4 µM. It also gave a TGI [16] of 24.8 µM, a GI50 [17] of 16.6 µM and a TGI [17] of 39.6 µM. It also gave a GI50 [18] of 37.8 µM, a TGI [18] of over 100 µM and a GI50 [19] of 13.9 µM. For the same compound, the TGI [19] was 35.6 µM, the GI50 [20] was 21.7 µM and the TGI [20] was 55.3 µM. For the same compound, the GI50 [21] was 50.8 µM, the TGI [21] was over 76.1 µM and the GI50 [22] was 24.4 µM. It also gave a TGI [22] of 64.3 µM, a GI50 [23] of 20.6 µM and a TGI [23] of 58.7 µM. It also gave a GI50 [24] of 18.3 µM, a TGI [24] of 43.9 µM and a GI50 [25] of 16.7 µM. The TGI [25] was 36.3 µM, the GI50 [26] was 9.22 µM and the TGI [26] was 47.3 µM. For the same compound, the GI50 [27] was 4.5 µM, the TGI [27] was 27 µM and the GI50 [28] was 5.82 µM. For the same compound, the TGI [28] was 17.1 µM, the GI50 [29] was over 63.3 µM and the TGI [29] was over 100 µM. The GI50 [30] was 1.63 µM, the GI50 [31] was 25.1 µM and the TGI [31] was over 77.2 µM. It also gave a GI50 [32] of 26.6 µM, a TGI [32] of 88.5 µM and a GI50 [33] of 16.7 µM. It also gave a TGI [33] of 36.4 µM, a GI50 [34] of 20.7 µM and a TGI [34] of 48.5 µM. The GI50 [35] was 4.22 µM, the TGI [35] was 17.8 µM and the GI50 [36] was 15 µM. It also gave a TGI [36] of over 44.8 µM, a GI50 [37] of 6.11 µM and a TGI [37] of 14.9 µM. It also gave a GI50 [38] of 40.5 µM, a TGI [38] of over 100 µM and a GI50 [39] of 27.2 µM. For the same compound, the TGI [39] was over 74.4 µM, the GI50 [40] was 20.6 µM and the TGI [40] was 48.1 µM. For the same compound, the GI50 [41] was 15.2 µM, the TGI [41] was over 60.1 µM and the GI50 [42] was 23.7 µM. It also gave a TGI [42] of over 70.5 µM, a GI50 [43] of 20.7 µM and a TGI [43] of over 54.9 µM. For the same compound, the GI50 [44] was 18.7 µM, the TGI [44] was 46.3 µM and the GI50 [45] was 22 µM. For the same compound, the TGI [45] was 61.8 µM, the GI50 [46] was 36 µM and the TGI [46] was over 92.8 µM. For the same compound, the GI50 [47] was 29.5 µM, the TGI [47] was over 100 µM and the GI50 [48] was 42.1 µM. For the same compound, the TGI [48] was over 100 µM, the GI50 [49] was 19.9 µM and the TGI [49] was 47.2 µM. It also gave a GI50 [50] of 21.7 µM, a TGI [50] of 49.1 µM and a GI50 [51] of 15.8 µM. For the same compound, the TGI [51] was 30.1 µM, the GI50 [52] was 20.1 µM and the TGI [52] was 58.2 µM. For the same compound, the GI50 [53] was 29 µM, the TGI [53] was over 100 µM and the GI50 [54] was 3.33 µM. It also gave a TGI [54] of 14.9 µM, a TGI [55] of 1.16 µM and a GI50 [56] of 20.5 µM. It also gave a TGI [56] of 67.2 µM, a GI50 [57] of 20.8 µM and a TGI [57] of over 65.4 µM. For the same compound, the GI50 [58] was 26.1 µM and the TGI [58] was over 68.9 µM.

For `CCCCCCCCc1cc(O)ccc1O`, the GI50 [1] was 20.4 µM, the TGI [1] was 50.9 µM and the GI50 [2] was 24.8 µM. It also gave a TGI [2] of 66.8 µM, a GI50 [3] of 19.5 µM and a TGI [3] of 49.7 µM. The GI50 [4] was 4.09 µM, the TGI [4] was 33.3 µM and the GI50 [5] was 1.46 µM. For the same compound, the TGI [5] was 22.7 µM, the GI50 [6] was 13.6 µM and the TGI [6] was 26.6 µM. The GI50 [7] was 10.9 µM, the TGI [7] was 23.3 µM and the GI50 [8] was 17.7 µM. For the same compound, the TGI [8] was 43.8 µM, the GI50 [9] was 16.4 µM and the TGI [9] was 38 µM. It also gave a GI50 [10] of 20.7 µM, a TGI [10] of 49 µM and a GI50 [11] of 18.5 µM. The TGI [11] was 40.6 µM, the GI50 [12] was 17.3 µM and the TGI [12] was 41.7 µM. The GI50 [13] was 14.2 µM, the TGI [13] was 37.6 µM and the GI50 [14] was 14.9 µM. The TGI [14] was 67.5 µM, the GI50 [15] was 21.4 µM and the TGI [15] was 51.6 µM. The GI50 [16] was 14.3 µM, the TGI [16] was 27.4 µM and the GI50 [17] was 29.2 µM. For the same compound, the TGI [17] was over 100 µM, the GI50 [18] was 34.8 µM and the TGI [18] was over 100 µM. For the same compound, the GI50 [19] was 16.6 µM, the TGI [19] was 34.4 µM and the GI50 [20] was 18.6 µM. It also gave a TGI [20] of 56.7 µM, a GI50 [21] of 4.65 µM and a TGI [21] of 21.1 µM. For the same compound, the GI50 [22] was 16 µM, the TGI [22] was 37.3 µM and the GI50 [23] was 18.1 µM. It also gave a TGI [23] of 61.1 µM, a GI50 [24] of 3.53 µM and a TGI [24] of 16.2 µM. The GI50 [25] was 10.7 µM, the TGI [25] was 24.9 µM and the GI50 [26] was 21.6 µM. For the same compound, the TGI [26] was 46.1 µM, the GI50 [27] was 13 µM and the TGI [27] was 27.3 µM. It also gave a GI50 [28] of 14.7 µM, a TGI [28] of 27.9 µM and a GI50 [29] of 14.1 µM. It also gave a TGI [29] of 31.3 µM, a GI50 [30] of 13 µM and a TGI [30] of 30.8 µM. It also gave a GI50 [31] of 19.3 µM, a TGI [31] of 56.2 µM and a GI50 [32] of 14.8 µM. The TGI [32] was 39.2 µM, the GI50 [33] was 17 µM and the TGI [33] was 30.7 µM. The GI50 [34] was 15.3 µM, the TGI [34] was 36 µM and the GI50 [35] was 10.5 µM. For the same compound, the TGI [35] was 48.5 µM, the GI50 [36] was 15 µM and the TGI [36] was 28.3 µM. It also gave a GI50 [37] of 17.3 µM, a TGI [37] of 72.8 µM and a GI50 [38] of 13.3 µM. The TGI [38] was 47.3 µM, the GI50 [39] was 17.4 µM and the TGI [39] was 33.4 µM. For the same compound, the GI50 [40] was 15.4 µM, the TGI [40] was 30 µM and the GI50 [41] was 16.1 µM. It also gave a TGI [41] of 49.4 µM, a GI50 [42] of 18.4 µM and a TGI [42] of 34.4 µM. It also gave a GI50 [43] of 15.4 µM, a TGI [43] of 28.8 µM and a GI50 [45] of 17.5 µM. For the same compound, the TGI [45] was 34.5 µM, the GI50 [46] was 21.3 µM and the TGI [46] was 90 µM. For the same compound, the GI50 [47] was 21.9 µM, the TGI [47] was 52.5 µM and the GI50 [48] was 17.3 µM. It also gave a TGI [48] of 33.1 µM, a GI50 [49] of 28.6 µM and a TGI [49] of over 100 µM. The GI50 [50] was 19.9 µM, the TGI [50] was 42.8 µM and the GI50 [51] was 12.8 µM. For the same compound, the TGI [51] was 25.8 µM, the GI50 [52] was 15.4 µM and the TGI [52] was 53.5 µM. It also gave a GI50 [53] of 18.5 µM, a TGI [53] of 39.9 µM and a GI50 [54] of 15 µM. The TGI [54] was 50.8 µM, the GI50 [55] was 5.65 µM and the TGI [55] was 25.3 µM. It also gave a GI50 [56] of 17.3 µM, a TGI [56] of 42 µM and a GI50 [57] of 30.1 µM. It also gave a TGI [57] of 68.7 µM, a GI50 [58] of 25.5 µM and a TGI [58] of 60.6 µM.
